pEC50: −log10 of the molar value.
Experiments:
[1] = tested on: WNV (WN-hRuPac cells); experiment: WNV antiviral activity, WN-hRuPac cells, Renilla luciferase; format: cell-based, West Nile virus; settings: for pEC50 / inhibition at 25 µM: West Nile virus; for pEC50: Secondary Data, WNV, read-out: WNV EC50; for inhibition at 25 µM: primary screening, 25 μM final concentration, 24 hours, percent inhibition of viral replication, read-out: WNV Inh; for WNV TI: therapeutic index CC50/EC50, WNV
[2] = tested on: DNG (D2-hRuPac cells); experiment: DNG antiviral activity, D2-hRuPac cells, Renilla luciferase; format: cell-based, Dengue fever virus; settings: Dengue virus, secondary screening
[3] = tested on: RSV minigenome; experiment: RSV minigenome-dependent β-galactosidase expression assay (RSV β-Gal); format: cell-based, respiratory syncytial virus; settings: for pEC50 / inhibition at 25 µM: human respiratory syncytial virus; for pEC50: Secondary Data, RSV, read-out: RSV EC50; for inhibition at 25 µM: primary screening, 25 μM final concentration, 24 hours, percent inhibition of viral replication, read-out: RSV Inh; for RSV TI: therapeutic index CC50/EC50, RSV
[4] = tested on: EBOV minigenome; experiment: microbe, parasite or virus in culture; format: cell-based, Ebola virus; settings: Zaire ebolavirus; for inhibition at 25 µM: 24 h, read-out: EBOV Inh; for pEC50: read-out: EBOV EC50
[5] = tested on: HCV replicon (Clone A cells, Huh7, subgenomic hepatits C virus RNA); experiment: HCV Neo screening assay (HCV replicon, NPTII ELISA); format: cell-based, hepatitis C virus; settings: for inhibition at 25 µM / pEC50: Hepatitis C virus, Huh-7; for inhibition at 25 µM: primary screening, 25 μM final concentration, 24 hours, percent inhibition of viral replication, read-out: HCV Inh; for pEC50: Secondary Data, HCV; for HCV TI: therapeutic index CC50/EC50, HCV
[6] = in vitro
[7] = tested on: YFV (YF-hRuPac cells); experiment: microbe, parasite or virus in culture; format: cell-based, yellow fever virus; settings: for inhibition at 25 µM / pEC50: Yellow fever virus; for inhibition at 25 µM: 24 h, read-out: YFV Inh; for pEC50: read-out: YFV EC50
[8] = tested on: SINV (SR19-F-luc cells); experiment: SINV antiviral activity, SR19-F-luc cells, Firefly luciferase; format: cell-based; settings: Sindbis virus; for inhibition at 25 µM: primary screening, 25 μM final concentration, 24 hours, percent inhibition of viral replication, read-out: SINV Inh; for pEC50: secondary screening, SR19-F-luc cells

SMILES	pEC50 [1]	inhibition at 25 µM [1] [%]	WNV TI [1]	pEC50 [2]	pEC50 [3]	inhibition at 25 µM [3] [%]	inhibition at 25 µM [4] [%]	pEC50 [4]	inhibition at 25 µM [5] [%]	CC50 ([6]; DNG CC50) [µM]	CC50 ([6]; EBOV CC50) [µM]	CC50 ([6]; RSV CC50) [µM]	CC50 ([6]; SINV CC50) [µM]	CC50 ([6]; WNV CC50) [µM]	CC50 ([6]; YFV CC50) [µM]	YFV TI [7]	inhibition at 25 µM [7] [%]	pEC50 [7]	inhibition at 25 µM [8] [%]	pEC50 [8]	also measured
CCOC(=O)c1cnc2c(Cl)cccc2c1NCc1ccco1 [Compound 55]	4.89	94.9	3.72	5.07	5.26	81.5	72.8	4.98	21.9	48.3	48.3	48.3	48.3	48.3	48.3	7.96	94.3	5.22	29.1	≤ 4.12	RSV TI [3]: 8.85; CC50 ([6]; HCV CC50): ≥ 75 µM
CCOc1ccc2nc(C)cc(Nc3ccc(OC)c(OC)c3)c2c1 [Compound 56]	5.46	95.7	7.95	5.07	5.48	99	89.3	4.32	128	27.8	27.8	27.8	27.8	27.8	27.8	7.93	98.7	5.45	95.8	5.63	RSV TI [3]: 8.36; pEC50 [5]: 5.34; HCV TI [5]: 1.47; CC50 ([6]; HCV CC50): 6.69 µM
CCOc1ccc2nc(C)cc(Nc3ccc(N(C)C)cc3)c2c1 [Compound 57]	5.44	85.7	8.62	5.20	5.34	97.9	70.8	4.12	136	31	31	31	31	31	31	11.24	95.8	5.56	87.7	5.40	RSV TI [3]: 6.8; pEC50 [5]: 5.30; HCV TI [5]: 0.85; CC50 ([6]; HCV CC50): 4.23 µM
CCOc1ccc2nc(C)cc(Nc3cc(Cl)ccc3OC)c2c1 [Compound 58]	5.42	91.5	4.91	5.16	5.63	99.8	80.2	5.31	137	18.7	18.7	18.7	18.7	18.7	18.7	7.04	96.6	5.58	92.8	5.38	RSV TI [3]: 7.98; pEC50 [5]: 5.31; HCV TI [5]: 2.38; CC50 ([6]; HCV CC50): 11.8 µM
COC(=O)c1ccc(Nc2cc(C)nc3ccc(Cl)cc23)cc1 [Compound 60]	4.84	68.3	5.14	4.82	≤ 4.12	38.1	57.4	4.12	71.3	≥ 75	≥ 75	≥ 75	≥ 75	≥ 75	≥ 75	2.17	79.4	4.46	45.8	4.92	pEC50 [5]: 5.85; HCV TI [5]: 32.5; CC50 ([6]; HCV CC50): 45.5 µM
COC(=O)c1ccc(Nc2cc(C)nc3c(C)cccc23)cc1 [Compound 61]	4.65	96.9	2.06	4.85	4.49	58.7	40.9	4.15	80.1	45.9	45.9	45.9	45.9	45.9	45.9	4.54	97.7	5.00	37.5	4.76	RSV TI [3]: 1.43; pEC50 [5]: 6.12; HCV TI [5]: 61.93; CC50 ([6]; HCV CC50): 46.5 µM
CCCOC(=O)c1ccc(Nc2cc(C)nc3ccc(C(=O)OCC)cc23)cc1 [Compound 63]	4.36	55	1.59	4.35	4.14	56.4	92	5.04	57.2	70.1	70.1	70.1	70.1	70.1	70.1	1.35	54.2	4.29	53.3	≤ 4.12	RSV TI [3]: 0.97
CCOC(=O)c1ccc2ncc(C(=O)OCC)c(NCCCOC(=O)C(Cl)(Cl)Cl)c2c1 [Compound 64]	5.05	37.2	6.8	5.38	4.66	84.9	90.1	4.81	43.4	60.5	60.5	60.5	60.5	60.5	60.5	1.32	25.8	4.34	26.1	4.47	RSV TI [3]: 2.75

Source: US20090221624A1, “4-AMINOQUINOLINE COMPOUNDS FOR TREATING VIRUS-RELATED CONDITIONS” (priority 2005, published 2009)
